Measured values: patent publication US20090143279A1 (priority 2007, published 2009)
Where two headings read alike, the source gives them in different places.

What was measured:
C2C12 myotubes = details: for Viability (composite Z-score): normalized score vs mock-treated (DMSO) wells
mtOXPHOS transcripts = assay type: cell-based, mouse; details: for mitoOX (composite Z-score): normalized score vs mock-treated (DMSO) wells
[1] = tested on: cellular dehydrogenase activity; details: for MTT (composite Z-score): normalized score vs mock-treated (DMSO) wells
cytochrome c = assay type: cell-based, mouse; details: for cyt c (composite Z-score): normalized score vs mock-treated (DMSO) wells
reactive oxygen species = assay type: cell-based, mouse; details: for ROS (composite Z-score): normalized score vs mock-treated (DMSO) wells
[2] = tested on: mitochondrial membrane potential; assay type: cell-based, mouse; details: for ΔΨm (composite Z-score): normalized score vs mock-treated (DMSO) wells
nuOXPHOS transcripts = assay type: cell-based, mouse; details: for nucOX (composite Z-score): normalized score vs mock-treated (DMSO) wells
OXPHOS gene expression = assay type: cell-based, mouse; details: for GE-HTS (composite Z-score): normalized score vs mock-treated (DMSO) wells
[3] = composite Z-score vs DMSO, Conc 20 μM
[4] = composite Z-score vs mock-treated (DMSO) wells, Conc 20 μM
[5] = composite Z-score vs DMSO wells, Conc 20 μM
[6] = 20 μM, composite Z-score vs DMSO
[7] = composite Z-score vs mock-treated (DMSO) wells, concentration of each compound in μM
[8] = normalized composite Z-score vs mock-treated (DMSO) wells, Conc 20 μM

COC(=O)C[C@H]1C2(C)CC34OC5(C)O[C@@]6([C@H](OC(C)=O)C(OC(C)=O)[C@]7(C)C(/C(=C(/O)C(C)C)C(=O)O[C@H]7c7ccoc7)[C@@]6(O5)[C@H](OC(C)=O)[C@@]3(O)C2OC(=O)C(C)C)[C@]14C (some centres unmarked) [bussein]
Viability (C2C12 myotubes; [3]): −0.052
Viability (C2C12 myotubes; [4]): 0.575
mitoOX (mtOXPHOS transcripts; [3]): −0.868
mitoOX (mtOXPHOS transcripts; [4]): 1.660
MTT [1, 3]: −0.599
MTT [1, 4]: −1.406
cyt c (cytochrome c; [3]): 0.622
cyt c (cytochrome c; [4]): −1.496
ROS (reactive oxygen species; [3]): 0.656
ROS (reactive oxygen species; [4]): −0.449
ΔΨm [2, 3]: −0.807
ΔΨm [2, 4]: 0.367
nucOX (nuOXPHOS transcripts; [3]): −0.683
nucOX (nuOXPHOS transcripts; [4]): 1.431
GE-HTS (OXPHOS gene expression; [3]): −0.809
GE-HTS (OXPHOS gene expression; [4]): 1.630

CC[N+]1(C)CCCC(OC(=O)C(O)(c2ccccc2)c2ccccc2)C1 (centres unmarked) [pipenzolate]
Viability (C2C12 myotubes; [5]): 0.001
mitoOX (mtOXPHOS transcripts; [5]): −0.569
MTT [1, 5]: 0.060
cyt c (cytochrome c): 0.192
cyt c (cytochrome c; [5]): −0.954
ROS (reactive oxygen species; [5]): 0.166
ΔΨm [2, 5]: −0.205
nucOX (nuOXPHOS transcripts; [5]): −0.411
GE-HTS (OXPHOS gene expression; [5]): −0.495

C=C1CC[C@H](O)C/C1=C/C=C1\CCC[C@]2(C)[C@@H]([C@H](C)/C=C/[C@H](C)C(C)C)CC[C@@H]12 [ergocalciferol]
Viability (C2C12 myotubes; [6]): 0.372
mitoOX (mtOXPHOS transcripts; [6]): 0.357
MTT [1, 6]: −1.658
cyt c (cytochrome c; [6]): −0.118
ROS (reactive oxygen species; [6]): 1.541
ΔΨm [2, 6]: −0.449
nucOX (nuOXPHOS transcripts; [6]): 0.723
GE-HTS (OXPHOS gene expression; [6]): 0.661

CC(=O)O.CSC(=N)NCCC[C@H](N)C(=O)O [S-methyl-L-thiocitrulline acetate]
Viability (C2C12 myotubes; [7]): 0.613
mitoOX (mtOXPHOS transcripts; [7]): 0.173
MTT [1, 7]: −0.262
cyt c (cytochrome c; [7]): 0.533
ROS (reactive oxygen species; [7]): 0.052
ΔΨm [2, 7]: −0.542
nucOX (nuOXPHOS transcripts; [7]): 0.325
GE-HTS (OXPHOS gene expression; [7]): 0.291

CC(C)C1COc2cc3oc(=O)ccc3cc2O1 (centres unmarked) [dihydro-obliquin]
Viability (C2C12 myotubes; [8]): −0.141
mitoOX (mtOXPHOS transcripts; [8]): 0.303
MTT [1, 8]: −0.661
cyt c (cytochrome c; [8]): −0.662
ROS (reactive oxygen species; [8]): 1.045
ΔΨm [2, 8]: −0.159
nucOX (nuOXPHOS transcripts; [8]): 0.192
GE-HTS (OXPHOS gene expression; [8]): 0.233

Cc1cc(O)c(C)c(O)c1C(=O)O [3-methylorsellinic acid]
Viability (C2C12 myotubes; [3]): −0.494
mitoOX (mtOXPHOS transcripts; [3]): −0.108
MTT [1, 3]: −1.253
cyt c (cytochrome c; [3]): 0.321
ROS (reactive oxygen species; [3]): 0.860
ΔΨm [2, 3]: −0.030
nucOX (nuOXPHOS transcripts; [3]): −1.318
GE-HTS (OXPHOS gene expression; [3]): −1.005

COc1cc(O)c(C(=O)c2ccccc2)cc1O [cearoin]
Viability (C2C12 myotubes; [4]): −1.078
mitoOX (mtOXPHOS transcripts; [4]): −1.603
MTT [1, 4]: −2.331
cyt c (cytochrome c; [4]): −1.478
ROS (reactive oxygen species; [4]): −2.274
ΔΨm [2, 4]: −1.006
nucOX (nuOXPHOS transcripts; [4]): −1.568
GE-HTS (OXPHOS gene expression; [4]): −1.672

CC(=O)O[C@H]1CC[C@]2(C)C3=CC(=O)[C@]4(C)[C@@H]5[C@H](C[C@H]4[C@@H]3CC[C@H]2C1)O[C@@]1(OCC(C)CC1Br)[C@H]5C (some centres unmarked)
Viability (composite Z-score) (C2C12 myotubes; Conc 20 μM): 0.710
mitoOX (composite Z-score) (mtOXPHOS transcripts; Conc 20 μM): −0.446
MTT (composite Z-score) ([1]; Conc 20 μM): −2.231
cyt c (composite Z-score) (cytochrome c; Conc 20 μM): 0.565
ROS (composite Z-score) (reactive oxygen species; Conc 20 μM): 1.188
ΔΨm (composite Z-score) ([2]; Conc 20 μM): −0.260
nucOX (composite Z-score) (nuOXPHOS transcripts; Conc 20 μM): −0.585
GE-HTS (composite Z-score) (OXPHOS gene expression; Conc 20 μM): −0.560

CCCC(=O)O[C@]1(C(=O)CO)CC[C@H]2[C@@H]3CCC4=CC(=O)CC[C@]4(C)[C@H]3[C@@H](O)C[C@@]21C [hydrocortisone butyrate]
Viability (C2C12 myotubes; [6]): −1.654
mitoOX (mtOXPHOS transcripts; [6]): 0.916
MTT [1, 6]: −0.932
cyt c (cytochrome c; [6]): −0.064
ROS (reactive oxygen species; [6]): 1.234
ΔΨm [2, 6]: −0.808
nucOX (nuOXPHOS transcripts; [6]): 0.514
GE-HTS (OXPHOS gene expression; [6]): 0.666

COc1cc2ccc(=O)oc2cc1O [scopoletin]
Viability (C2C12 myotubes): 0.413
Viability (C2C12 myotubes; [6]): 0.675
mitoOX (mtOXPHOS transcripts): −0.291
mitoOX (mtOXPHOS transcripts; [6]): 0.101
MTT [1]: 0.261
MTT [1, 6]: −0.957
cyt c (cytochrome c): 0.501
cyt c (cytochrome c; [6]): 0.928
ROS (reactive oxygen species): −0.017
ROS (reactive oxygen species; [6]): 0.727
ΔΨm [2]: 0.146
ΔΨm [2, 6]: −0.056
nucOX (nuOXPHOS transcripts): −0.513
nucOX (nuOXPHOS transcripts; [6]): 0.746
GE-HTS (OXPHOS gene expression): −0.462
GE-HTS (OXPHOS gene expression; [6]): 0.543

CC[C@@]1(O)C[C@H](O[C@H]2C[C@H](N(C)C)[C@H](O)[C@H](C)O2)c2c(cc3c(c2O)C(=O)c2c(O)cccc2C3=O)[C@H]1C(=O)OC [aklavine]
Viability (C2C12 myotubes; [5]): −2.971
mitoOX (mtOXPHOS transcripts; [5]): 1.063
MTT [1, 5]: −6.213
cyt c (cytochrome c; [5]): −5.658
ROS (reactive oxygen species; [5]): −2.347
ΔΨm [2, 5]: −3.626
nucOX (nuOXPHOS transcripts; [5]): 0.430
GE-HTS (OXPHOS gene expression; [5]): 0.706

CO[C@H]1C[C@H](O[C@H]2CC[C@]3(C=O)[C@H]4CC[C@]5(C)[C@@H](C6=CC(=O)OC6)CC[C@]5(O)[C@@H]4CC[C@]3(O)C2)O[C@H](C)[C@H]1O [cymarin]
Viability (composite Z-score) (C2C12 myotubes; Conc 20 μM): −1.155
mitoOX (composite Z-score) (mtOXPHOS transcripts; Conc 20 μM): −0.464
MTT (composite Z-score) ([1]; Conc 20 μM): −1.849
cyt c (composite Z-score) (cytochrome c; Conc 20 μM): 0.356
ROS (composite Z-score) (reactive oxygen species; Conc 20 μM): 0.695
ΔΨm (composite Z-score) ([2]; Conc 20 μM): −0.996
nucOX (composite Z-score) (nuOXPHOS transcripts; Conc 20 μM): −0.412
GE-HTS (composite Z-score) (OXPHOS gene expression; Conc 20 μM): −0.473

COc1ccc([C@H]2COc3c(ccc(O)c3OC)C2)c(OC)c1O [(−)-duartin]
Viability (C2C12 myotubes; [7]): 1.175
mitoOX (mtOXPHOS transcripts; [7]): 0.466
MTT [1, 7]: −0.571
cyt c (cytochrome c; [7]): −0.472
ROS (reactive oxygen species; [7]): 0.900
ΔΨm [2, 7]: 0.392
nucOX (nuOXPHOS transcripts; [7]): −0.331
GE-HTS (OXPHOS gene expression; [7]): −0.048

C=C[C@@](C)(O)CCC1C(=C)CCC2[C@@](C)(CO)CCC[C@]12C (stereo partly drawn) [epi(13)torulosol]
Viability (C2C12 myotubes; [8]): 0.367
mitoOX (mtOXPHOS transcripts; [8]): 0.643
MTT [1, 8]: 0.603
cyt c (cytochrome c; [8]): 0.483
ROS (reactive oxygen species; [8]): 1.180
ΔΨm [2, 8]: 0.022
nucOX (nuOXPHOS transcripts; [8]): 0.342
GE-HTS (OXPHOS gene expression; [8]): 0.491

COc1cc(-c2coc3cc(OCc4ccccc4)c(OC)c(O)c3c2=O)cc(OCc2ccccc2)c1OC [irigenin, dibenzyl ether]
Viability (C2C12 myotubes; [3]): −1.724
mitoOX (mtOXPHOS transcripts; [3]): −0.602
MTT [1, 3]: −0.793
cyt c (cytochrome c; [3]): 0.012
ROS (reactive oxygen species; [3]): 0.088
ΔΨm [2, 3]: 0.178
nucOX (nuOXPHOS transcripts; [3]): −0.163
GE-HTS (OXPHOS gene expression; [3]): −0.325

COc1cc(/C=C/CO)ccc1O [coniferyl alcohol]
Viability (composite Z-score) (C2C12 myotubes; Conc 20 μM): −0.771
mitoOX (composite Z-score) (mtOXPHOS transcripts; Conc 20 μM): −0.251
MTT (composite Z-score) ([1]; Conc 20 μM): −1.094
cyt c (composite Z-score) (cytochrome c; Conc 20 μM): 0.296
ROS (composite Z-score) (reactive oxygen species; Conc 20 μM): −0.450
ΔΨm (composite Z-score) ([2]; Conc 20 μM): −0.719
nucOX (composite Z-score) (nuOXPHOS transcripts; Conc 20 μM): −0.688
GE-HTS (composite Z-score) (OXPHOS gene expression; Conc 20 μM): −0.593

COc1ccc(-c2cc(=O)c3c(OC)cc(OC)c(-c4cc(-c5cc(=O)c6c(OC)cc(OC)cc6o5)ccc4OC)c3o2)cc1 [dioonflavone]
Viability (C2C12 myotubes; [7]): −0.003
mitoOX (mtOXPHOS transcripts; [7]): −0.969
MTT [1, 7]: −0.744
cyt c (cytochrome c; [7]): 0.605
ROS (reactive oxygen species; [7]): 0.650
ΔΨm [2, 7]: 0.208
nucOX (nuOXPHOS transcripts; [7]): −0.204
GE-HTS (OXPHOS gene expression; [7]): −0.471

COC(=O)C[C@H]1C2(C)CC34OC5(C)O[C@@]6([C@H](OC)C(OC(=O)C(C)C)[C@]7(C)C(/C(=C(/OC)C(C)C)C(=O)O[C@H]7c7ccoc7)[C@@]6(O5)[C@H](OC)[C@@]3(OC)C2OC(C)=O)[C@]14C (some centres unmarked) [chukrasin methyl ether]
Viability (C2C12 myotubes; [4]): −0.822
mitoOX (mtOXPHOS transcripts; [4]): 0.198
MTT [1, 4]: −0.818
cyt c (cytochrome c; [4]): −0.248
ROS (reactive oxygen species; [4]): 0.777
ΔΨm [2, 4]: −1.084
nucOX (nuOXPHOS transcripts; [4]): 0.417
GE-HTS (OXPHOS gene expression; [4]): 0.352
